Source: patent US9328158B2, “H. pylori lipopolysaccharide outer core epitope” (National Research Council of Canada, priority 2009, dated 2016)
Values after ≈ are worked out from the molar mass of the structure shown.

Target: 1C4F9 mAb
Assay: Inhibition ELISA of 1C4F9 mAb binding to adsorbed LPS
Set-up: species or system mouse
Conditions: Concentration of the oligosaccharide or LPS required for 50% inhibition; purified 1C4F9
Experimental: Studies of the specificity of the glucan-specific antibody were carried out using a series of linear oligosaccharides consisting of consecutive α1,6-linked glucose residues Glc→[α(1→6)Glc]n=1-6 and selective purified H. pylori LPS. For inhibition ELISA, serial dilutions of linear α1,6-linked glucose-containing oligosaccharides from isomalto-series [Glcα1→(6Glcα1→)n=1-6] (USBIOLOGICALS™, Swampscott, […].) or H. pylori 26695, O:3 and PJ2 LPS inhibitors were prepared and mixed with previously prepared dilutions of purified 1 C4F9 that gave an OD450=1. […] After this step, the indirect ELISA procedure was followed as described in Example 6.

SMILES | IC50
OCC1OC(OCC2OC(OCC3OC(OCC4OC(OCC5OC(OCC6OC(OCC7OC(O)C(O)C(O)C7O)C(O)C(O)C6O)C(O)C(O)C5O)C(O)C(O)C4O)C(O)C(O)C3O)C(O)C(O)C2O)C(O)C(O)C1O (centres unmarked) [Isomaltoheptaose] | 210 µg/mL (≈ 182 µM)
OCC1OC(OCC2OC(OCC3OC(OCC4OC(OCC5OC(OCC6OC(O)C(O)C(O)C6O)C(O)C(O)C5O)C(O)C(O)C4O)C(O)C(O)C3O)C(O)C(O)C2O)C(O)C(O)C1O (centres unmarked) [Isomaltohexaose] | 290 µg/mL (≈ 293 µM)
OCC1OC(OCC2OC(OCC3OC(OCC4OC(OCC5OC(O)C(O)C(O)C5O)C(O)C(O)C4O)C(O)C(O)C3O)C(O)C(O)C2O)C(O)C(O)C1O (centres unmarked) [Isomaltopentaose] | 460 µg/mL (≈ 555 µM)
OCC1OC(OCC2OC(OCC3OC(OCC4OC(O)C(O)C(O)C4O)C(O)C(O)C3O)C(O)C(O)C2O)C(O)C(O)C1O (centres unmarked) [Isomaltotetraose] | 1,600 μg/mL
OCC1OC(OCC2OC(OCC3OC(O)C(O)C(O)C3O)C(O)C(O)C2O)C(O)C(O)C1O (centres unmarked) [Isomaltotriose] | 10,000 μg/mL
